Reference: the supplement of paper PMC11208160

Assay: recombinant barcode read abundance after kanamycin selection (control-corrected) (log10(CPM+1)); higher = more efficient recombination; sequences stand for … in AGTGCAGAGAAAATCGGCCAGTTTTCTCTGCCTGCAGTCCGCATGCCGT…ATTTATGCAGCGGACTGCCTTTCTCCCAAAGTGATAAACCGGACAGTATCATGGACCGGTTTTCCCGGTAATCCGTATTTGCAAGGTTGGTTTCACT; site = the 11-nt target
Method in brief: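 Targets and IS621 bridge RNA target-binding loops were paired in oligos, each with a promoter, a barcode and the J23119-driven first 104 bridge RNA bases. A vector carrying the remaining 73 bp and a T7-inducible recombinase received these by Gibson cloning, and the pool was co-electroporated into E. coli with a donor plasmid. Duplicate plates contained chloramphenicol/ampicillin LB agar (control) or chloramphenicol/ampicillin/kanamycin with 0.1 mM IPTG. Recombination efficiency comes from averaged, control-corrected counts per million of recombinant-junction barcodes, reported as log10(CPM+1).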

Sequence | recombinant barcode read abundance (log10)
GGCTCCCATTGGGTTCTAACCTGTTGCGGAT [GGCTCCCCTCC_LTGcore_AT_RTGcore_AT] (site GGCTCCCCTCC) (LTG core: AT, RTG core: AT) | 0.138
GGCTCCCCCTGGGTTCTAACCTGTTGCGGGG [GGCTCCCCTCC_LTGcore_CC_RTGcore_CC] (site GGCTCCCCTCC) (LTG core: CC, RTG core: CC) | 0.0622
GGCTCCCCGTGGGTTCTAACCTGTTGCGGAG [GGCTCCCCTCC_LTGcore_CG_RTGcore_CT] (site GGCTCCCCTCC) (LTG core: CG, RTG core: CT) | 0.116
GGCTCCCCGTGGGTTCTAACCTGTTGCGGCG [GGCTCCCCTCC_LTGcore_CG_RTGcore_CG] (site GGCTCCCCTCC) (LTG core: CG, RTG core: CG) | 0.0989
GGCTCCCCTTGGGTTCTAACCTGTTGCGGAG [GGCTCCCCTCC_LTGcore_CT_RTGcore_CT] (site GGCTCCCCTCC) (LTG core: CT, RTG core: CT) | 0.248
GGCTCCCCTTGGGTTCTAACCTGTTGCGGCG [GGCTCCCCTCC_LTGcore_CT_RTGcore_CG] (site GGCTCCCCTCC) (LTG core: CT, RTG core: CG) | 0.0875
GGCTCCCCTTGGGTTCTAACCTGTTGCGGGG [GGCTCCCCTCC_LTGcore_CT_RTGcore_CC] (site GGCTCCCCTCC) (LTG core: CT, RTG core: CC) | 0.0955
GGCTCCCCTTGGGTTCTAACCTGTTGCGGTT [GGCTCCCCTCC_LTGcore_CT_RTGcore_AA] (site GGCTCCCCTCC) (LTG core: CT, RTG core: AA) | 0.285
GGCTCCCGCTGGGTTCTAACCTGTTGCGGGC [GGCTCCCCTCC_LTGcore_GC_RTGcore_GC] (site GGCTCCCCTCC) (LTG core: GC, RTG core: GC) | 0.0637
GGCTCCCGTTGGGTTCTAACCTGTTGCGGAG [GGCTCCCCTCC_LTGcore_GT_RTGcore_CT] (site GGCTCCCCTCC) (LTG core: GT, RTG core: CT) | 0.546
GGCTCCCTGTGGGTTCTAACCTGTTGCGGCA [GGCTCCCCTCC_LTGcore_TG_RTGcore_TG] (site GGCTCCCCTCC) (LTG core: TG, RTG core: TG) | 0.234
GGGAGCCAATGGGTTCTAACCTGTTGCTGTT [GGGAGCCCTCA_LTGcore_AA_RTGcore_AA] (site GGGAGCCCTCA) (LTG core: AA, RTG core: AA) | 0.427
GGGAGCCCATGGGTTCTAACCTGTTGCTGAG [GGGAGCCCTCA_LTGcore_CA_RTGcore_CT] (site GGGAGCCCTCA) (LTG core: CA, RTG core: CT) | 1.06
GGGAGCCCTTGGGTTCTAACCTGTTGCTGAA [GGGAGCCCTCA_LTGcore_CT_RTGcore_TT] (site GGGAGCCCTCA) (LTG core: CT, RTG core: TT) | 0.138
GGGAGCCCTTGGGTTCTAACCTGTTGCTGAT [GGGAGCCCTCA_LTGcore_CT_RTGcore_AT] (site GGGAGCCCTCA) (LTG core: CT, RTG core: AT) | 0.599
GGGAGCCCTTGGGTTCTAACCTGTTGCTGCC [GGGAGCCCTCA_LTGcore_CT_RTGcore_GG] (site GGGAGCCCTCA) (LTG core: CT, RTG core: GG) | 0.0726
GGGAGCCCTTGGGTTCTAACCTGTTGCTGTT [GGGAGCCCTCA_LTGcore_CT_RTGcore_AA] (site GGGAGCCCTCA) (LTG core: CT, RTG core: AA) | 0.272

Sequence | recombinant barcode read abundance (log10)
GGGAGCCGCTGGGTTCTAACCTGTTGCTGAG [GGGAGCCCTCA_LTGcore_GC_RTGcore_CT] (site GGGAGCCCTCA) (LTG core: GC, RTG core: CT) | 0.379
GGGAGCCGGTGGGTTCTAACCTGTTGCTGAG [GGGAGCCCTCA_LTGcore_GG_RTGcore_CT] (site GGGAGCCCTCA) (LTG core: GG, RTG core: CT) | 0.212
GGGAGCCGGTGGGTTCTAACCTGTTGCTGCC [GGGAGCCCTCA_LTGcore_GG_RTGcore_GG] (site GGGAGCCCTCA) (LTG core: GG, RTG core: GG) | 0.0432
GGGCGGAAATGGGTTCTAACCTGTTGCGGTT [GGGCGGACTCC_LTGcore_AA_RTGcore_AA] (site GGGCGGACTCC) (LTG core: AA, RTG core: AA) | 0.428
GGGCGGAATTGGGTTCTAACCTGTTGCGGAT [GGGCGGACTCC_LTGcore_AT_RTGcore_AT] (site GGGCGGACTCC) (LTG core: AT, RTG core: AT) | 0.0199
GGGCGGACATGGGTTCTAACCTGTTGCGGTG [GGGCGGACTCC_LTGcore_CA_RTGcore_CA] (site GGGCGGACTCC) (LTG core: CA, RTG core: CA) | 0.732
GGGCGGACGTGGGTTCTAACCTGTTGCGGCG [GGGCGGACTCC_LTGcore_CG_RTGcore_CG] (site GGGCGGACTCC) (LTG core: CG, RTG core: CG) | 0.759
GGGCGGACTTGGGTTCTAACCTGTTGCGGCT [GGGCGGACTCC_LTGcore_CT_RTGcore_AG] (site GGGCGGACTCC) (LTG core: CT, RTG core: AG) | 0.292
GGGCGGACTTGGGTTCTAACCTGTTGCGGTG [GGGCGGACTCC_LTGcore_CT_RTGcore_CA] (site GGGCGGACTCC) (LTG core: CT, RTG core: CA) | 0.17
GGGCGGAGCTGGGTTCTAACCTGTTGCGGGC [GGGCGGACTCC_LTGcore_GC_RTGcore_GC] (site GGGCGGACTCC) (LTG core: GC, RTG core: GC) | 0.417
GGGCGGAGTTGGGTTCTAACCTGTTGCGGAC [GGGCGGACTCC_LTGcore_GT_RTGcore_GT] (site GGGCGGACTCC) (LTG core: GT, RTG core: GT) | 0.199
GGGCGGATGTGGGTTCTAACCTGTTGCGGAG [GGGCGGACTCC_LTGcore_TG_RTGcore_CT] (site GGGCGGACTCC) (LTG core: TG, RTG core: CT) | 0.251
GGGCGTGAATGGGTTCTAACCTGTTGCCTTT [GGGCGTGCTAG_LTGcore_AA_RTGcore_AA] (site GGGCGTGCTAG) (LTG core: AA, RTG core: AA) | 0.148
GGGCGTGCATGGGTTCTAACCTGTTGCCTTG [GGGCGTGCTAG_LTGcore_CA_RTGcore_CA] (site GGGCGTGCTAG) (LTG core: CA, RTG core: CA) | 0.0757
GGGCGTGCTTGGGTTCTAACCTGTTGCCTCT [GGGCGTGCTAG_LTGcore_CT_RTGcore_AG] (site GGGCGTGCTAG) (LTG core: CT, RTG core: AG) | 0.831
GGGCGTGGGTGGGTTCTAACCTGTTGCCTCC [GGGCGTGCTAG_LTGcore_GG_RTGcore_GG] (site GGGCGTGCTAG) (LTG core: GG, RTG core: GG) | 0.116
GGGCGTGGTTGGGTTCTAACCTGTTGCCTAC [GGGCGTGCTAG_LTGcore_GT_RTGcore_GT] (site GGGCGTGCTAG) (LTG core: GT, RTG core: GT) | 0.593
